According to patent publication US9908890B2, “Selective inhibitors of constitutive androstane receptor” (ST. JUDE CHILDREN'S RESEARCH HOSPITAL, priority 2014, dated 2018):
Values joined by “and” are separate entries in the source; they are usually repeats but may differ in a detail not shown here. Identical values can stand only once. Like-named read-outs stand apart in the source and are kept apart here.

Target: T1, GST-hCAR-LBD (Homo sapiens, UniProt Q14994)
T1 construct: purchased Life Technologies (Carlsbad, Calif.) or Invitrogen (Carlsbad, Calif.)
T1 sequence (Q14994 109-352 limits assumed): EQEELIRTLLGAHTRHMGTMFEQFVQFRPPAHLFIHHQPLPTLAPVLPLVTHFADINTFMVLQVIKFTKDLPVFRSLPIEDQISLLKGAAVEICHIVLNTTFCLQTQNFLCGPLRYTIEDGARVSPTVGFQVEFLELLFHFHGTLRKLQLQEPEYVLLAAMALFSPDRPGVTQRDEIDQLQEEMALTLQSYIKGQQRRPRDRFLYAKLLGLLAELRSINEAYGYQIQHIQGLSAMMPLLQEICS
Test: CoAct binding inverse agonist assay (LanthaScreen TR-FRET, fluorescent PGC-1α coactivator recruitment/repression)
Type: biochemical
Details: for inhibition at 70 µM: 70 μM compound, 42 μM clotrimazole = 100%, DMSO = 0%, read-out: % Inhibition (70 μM)
Experimental: The effect of putative CAR ligands on the recruitment or repression of PGC-1α binding to hCAR was evaluated by using a LanthaScreen TR-FRET assay according to the manufacturer's instructions. […] The final DMSO concentration was 0.7% in all assay wells. […] The % Inhibition values were then plotted for individual chemicals. When applicable, the graphic software GraphPad Prism 5.04 (GraphPad Software, La Jolla, Calif., USA) was used to fit the data into a one-site competitive-binding equation to derive IC50 values. […] The assay plates were then briefly spun down and incubated for 1 hour at room temperature (25° C.). […] The final DMSO concentration was 0.7% in all assay wells. […] The % Inhibition values were then plotted for individual chemicals. When applicable, the graphic software GraphPad Prism 5.04 (GraphPad Software, La Jolla, Calif., USA) was used to fit the data into a one-site competitive-binding equation to derive IC50 values.

[1] = read-out: IC50 (CAR inverse agonistic activity)

| SMILES | IC50 [1] | IC50 (Table 4, read-out: IC50) | inhibition at 70 µM | other results |
| --- | --- | --- | --- | --- |
| CCN(CC)CC(=O)N1c2ccccc2CCc2ccc(NC(=O)NC(C)C)cc21 [Compound 6, 1-(5-(diethylglycyl)-10,11-dihydro-5H-dibenzo[b,f]azepin-3-yl)-3-isopropylurea] | 4930 nM |  | 107% |  |
| CCOC(=O)Nc1ccc2c(c1)N(C(=O)CN(CC)CC)c1ccccc1CC2 [Compound 1, ethyl (5-(diethylglycyl)-10,11-dihydro-5H-dibenzo[b,f]azepin-3-yl)carbamate] | 690 nM | 690 nM | 116% |  |
| CCOC(=O)Nc1ccc2c(c1)N(C(=O)CCN(CC)CC)c1ccccc1CC2 [Compound 22, ethyl (5-(3-(diethylamino)propanoyl)-10,11-dihydro-5H-dibenzo[b,f]azepin-3-yl)carbamate] | 2430 nM |  | 119% | fold increase of IC50 (decrease of activity) relative to lead chemical 1 (CINPA1) (relative to chemical 1): 3.5 fold |
| CCN(CC)CC(=O)N1c2ccccc2CCc2ccc(NC(=O)NC(C)(C)C)cc21 [Compound 7, 1-(tert-butyl)-3-(5-(diethylglycyl)-10,11-dihydro-5H-dibenzo[b,f]azepin-3-yl)urea] | 13000 nM |  | 101% |  |
| CCCC(=O)Nc1ccc2c(c1)N(C(=O)CN(CC)CC)c1ccccc1CC2 [Compound 2, N-(5-(diethylglycyl)-10,11-dihydro-5H-dibenzo[b,f]azepin-3-yl)butyramide] |  |  | 106% | IC50 (quoted in SAR text in nM, read-out: IC50 (CAR inverse agonistic activity)): 2320 nM |
| CCN(CC)C(=O)N1c2ccccc2CCc2ccc(NC(=O)OC(C)C)cc21 [Compound 54] |  | 19 nM |  |  |
| CCOC(=O)Nc1ccc2c(c1)N(C(=O)CN1C(=O)C=CC1=O)c1ccccc1CC2 [Compound 15, ethyl (5-(2-(2,5-dioxo-2,5-dihydro-1H-pyrrol-1-yl)acetyl)-10,11-dihydro-5H-dibenzo[b,f]azepin-3-yl)carbamate] | 39800 nM |  | 76% | fold IC50 relative to chemical 13 (relative to chemical 13): 25 fold |
| CCOC(=O)Nc1ccc2c(c1)N(C(=O)CN(C(C)C)C(C)C)c1ccccc1CC2 [Compound 12, ethyl (5-(diisopropylglycyl)-10,11-dihydro-5H-dibenzo[b,f]azepin-3-yl)carbamate] |  | 3050 nM | 110% | fold increase of IC50 (decrease of activity) relative to lead chemical 1 (CINPA1) (relative to chemical 1): more than 4 fold |
| CC(C)OCC(=O)N1c2ccccc2CCc2ccc(NC(=O)OC(C)(C)C)cc21 [Compound 39, tert-butyl (5-(2-isopropoxyacetyl)-10,11-dihydro-5H-dibenzo[b,f]azepin-3-yl)carbamate] | 120 nM |  |  |  |

The next lines start with results.

| IC50 [1] | IC50 (Table 4, read-out: IC50) | SMILES | inhibition at 70 µM | other results |
| --- | --- | --- | --- | --- |
| 240 nM and 235 nM |  | CCOC(=O)Nc1ccc2c(c1)N(C(=O)CN1CCOCC1)c1ccccc1CC2 [compound 80] |  | fold increase of CAR inverse agonistic activity (potency) over lead chemical 1 (CINPA1) (relative to chemical 1): about 3 fold |
|  | 150 nM | O=C(Nc1ccc2c(c1)N(C(=O)N1CCCCC1)c1ccccc1CC2)OC1CCCCC1 [Compound 59] |  |  |
| 38800 nM |  | CCOC(=O)Nc1ccc2c(c1)N(C(=O)CN1CCN(C)CC1)c1ccccc1CC2 [compound 81] |  | fold increase of IC50 (decrease of activity) relative to lead chemical 1 (CINPA1) (relative to chemical 1): 56 fold |
| 5010 nM |  | CCOC(=O)Nc1ccc2c(c1)N(C(=O)CCN(C)C)c1ccccc1CC2 [compound 86] |  |  |
|  | 26 nM | O=C(Nc1ccc2c(c1)N(C(=O)Cc1cccs1)c1ccccc1CC2)OC1CCCCC1 [Compound 66] |  |  |
|  | 75 nM | CC(C)OC(=O)Nc1ccc2c(c1)N(C(=O)c1ccco1)c1ccccc1CC2 [Compound 65] |  |  |
|  | 17 nM | O=C(Nc1ccc2c(c1)N(C(=O)OC1CCCC1)c1ccccc1CC2)OC1CCCCC1 [Compound 60] |  |  |
|  | 50 nM | O=C(Nc1ccc2c(c1)N(C(=O)c1ccco1)c1ccccc1CC2)OC1CCCCC1 [Compound 69] |  |  |
| 20 nM |  | O=C(Nc1ccc2c(c1)N(C(=O)Cn1cccc1)c1ccccc1CC2)OC1CCC1 [Compound 42, cyclobutyl (5-(2-(1H-pyrrol-1-yl)acetyl)-10,11-dihydro-5H-dibenzo[b,f]azepin-3-yl)carbamate] |  |  |
|  | 12 nM | CC(C)OC(=O)Nc1ccc2c(c1)N(C(=O)c1cccs1)c1ccccc1CC2 [Compound 64] |  |  |
